As usually defined, the IC50 is the concentration at which inhibition is half-maximal. For orientation: Ki means a dissociation constant, usually derived from enzyme kinetics or from competition with a known ligand. The low end stands for a stronger hold on the target, the high end for a looser hold on the target.

The target of assay [1] is T1, Cathepsin B (Homo sapiens, UniProt P07858). As to the kind of experiment: Inhibition of recombinant human cathepsin B expressed in baculovirus expression system using Z-Arg-Arg-AMC as substrate incubated for 20 mins by fluorescence based assay.
The target of assay [2] is Cathepsin B (Bos taurus) (UniProt P07688). Briefly: Inhibition of bovine spleen cathepsin B assessed as ratio of Kinact to Ki by spectrophotometeric method.
For assay [3], the target named is T1, Cathepsin B. Briefly: Inhibition of human liver cathepsin B using Z-Phe-Arg-AMC as substrate incubated for 30 mins by fluorescence based assay.
The target in assay [4] is T1, Cathepsin B. Briefly: Inhibition of human cathepsin B assessed as ratio of Kinact to Ki using Z-Phe-Arg-NH-Mec as substrate incubated for 15 to 90 mins by fluorometric method.
In assay [5] the target is T1, Cathepsin B. As to the kind of experiment: Inhibition of human liver cathepsin B using Z-Arg-Arg-AMC as substrate preincubated for 15 mins followed by substrate addition and measured after 30 mins by fluorometric method.
The target in assay [6] is Cathepsin B (Bos taurus) (UniProt P07688). As to the kind of experiment: Inhibition of bovine cathepsin B assessed as ratio of Kinact to Ki using Z-Phe-Arg-pNA as substrate by UV/Vis spectrophotometric method.
Assay [7] addresses T1, Cathepsin B. As to the kind of experiment: Inhibition of cathepsin B (unknown origin) assessed as reduction in 7-amino-4-methylcoumarin formation using Z-Arg-Arg-MCA as substrate preincubated for 3 mins followed by substrate addition and measured after 10 mins by fluorescence spectrometric method.

*1 amine or outer side, *2 acyl side, *3 side chain or, on linkers, in order; H or OH if unused. Where a SMILES comes first, the peptide text is derived from it. [ ]: non-standard residue; d: D form. The star is where a group is joined. X1 = CC(C)C[C@H](N[*:1])C(=O)NC(=O)[C@H]1O[C@@H]1C(=O)[*:2]; N(6-aminohexyl)Gly = O=C(CN(CCCCCCN[*:3])[*:1])[*:2]; Biotin = O=C1N[C@H]2[C@H](CS[C@H]2CCCCC(=O)*)N1

On to `CCCCC(=O)N[C@@H](Cc1cccc(C)c1)C(=O)N[C@H](C#N)COCc1cccc(C(=O)O)c1`, for which the IC50 on Cathepsin B [1] was under 10 nM.

For `CC(C)CCNC(=O)[C@H](Cc1cc(I)c(O)c(I)c1)NC(=O)[C@H]1O[C@@H]1C(=O)O`, at Cathepsin B (Bos taurus) [2], the Ratio worked out at 105000 M⁻¹ s⁻¹.

As to `CC(C)CC(NC(=O)c1ccc(Br)cc1)C(=O)N(C)N(C)C#N` (racemic), the Ki on Cathepsin B [3] is 2 nM. In other words, the single-digit nanomolar range.

As for `COC(=O)CNC(=O)CNC(=O)[C@H](CC(C)C)NC(=O)[C@H]1O[C@@H]1C(=O)N[C@@H](CC(C)C)C(=O)N1CCC[C@H]1C(=O)O`, the Ratio at Cathepsin B [4] was 1.52e+06 M⁻¹ s⁻¹.

Turning to `CC(C)C[C@H](NC(=O)CNC(=O)CNCCCCCCNC(=O)CCCC[C@@H]1SC[C@@H]2NC(=O)N[C@@H]21)C(=O)NC(=O)[C@H]1O[C@@H]1C(=O)N[C@@H](CC(C)C)C(=O)N1CCC[C@H]1C(=O)O` (H-[N(6-aminohexyl)Gly](Biotin)G[X1]LP-OH), the Ratio at Cathepsin B [4] turned out to be 1.6e+06 M⁻¹ s⁻¹.

In the case of `CCOC(=O)[C@H]1O[C@@H]1C(=O)N[C@@H](CC(C)C)C(=O)N1CCC[C@H]1C(=O)O`, the Ratio on Cathepsin B [4] was 44400 M⁻¹ s⁻¹.

As to `Cc1cccc(C[C@H](NC(=O)c2ccc(Cl)cc2F)C(=O)N[C@H](C#N)COCc2cccc(C(=O)O)c2)c1`, the IC50 on Cathepsin B [1] is under 10 nM.

Take `CCCNC(=O)[C@@H]1O[C@H]1C(=O)N[C@@H](CC(C)C)C(=O)N1CCC[C@H]1C(=O)O`: the Ratio at Cathepsin B [4] turned out to be 29400 M⁻¹ s⁻¹.

In the case of `CC(C)CCNC(=O)[C@H](Cc1ccccc1)NC(=O)[C@H]1O[C@@H]1C(=O)O`, the Ratio on Cathepsin B (Bos taurus) [2] was determined as 12300 M⁻¹ s⁻¹.

At Cathepsin B [5], `CN1CCN(C(=O)N[C@@H](Cc2ccccc2)C(=O)N[C@H](/C=C/S(=O)(=O)c2ccccc2)c2ccc(-c3ccccc3)cc2)CC1` returned an IC50 of 300 nM.

On to `CCOC(=O)[C@@H]1O[C@H]1C(=O)N[C@@H](CC(C)C)C(=O)N1CCC[C@H]1C(=O)O`, for which the Ratio on Cathepsin B [4] is 567000 M⁻¹ s⁻¹.

Consider `CC(C)CC(NC(=O)c1cccc(-c2ccncc2)c1)C(=O)N(C)N(C)C#N` (racemic), for which the affinity on Cathepsin B [3] corresponds to a Ki of 5 nM.

For the compound `Cc1cccc(C[C@H](NC(=O)c2ccccc2)C(=O)N[C@H](C#N)COCc2cccc(C(=O)O)c2)c1`, the IC50 at Cathepsin B [1] is under 10 nM.

Turning to `CC(=O)N[C@@H](Cc1ccccc1)C(=O)NCC(=O)COC(=O)[C@@H](CC(C)C)NC(=O)OCc1ccccc1`, the Ratio at Cathepsin B (Bos taurus) [6] is 300 M⁻¹ s⁻¹.

Consider `CC(C)CC(NC(=O)c1ccc(-c2ccc(-c3ccccc3)cc2)cc1)C(=O)N(C)N(C)C#N` (racemic), for which the Ki on Cathepsin B [3] was 0.69 nM.

On to `CC(=O)N[C@@H](Cc1ccccc1)C(=O)NCC(=O)COC(=O)[C@H](CC(C)C)NC(=O)OCc1ccccc1`, for which, at Cathepsin B (Bos taurus) [6], the Ratio was 2700 M⁻¹ s⁻¹.

Consider `CCOC(=O)[C@H]1O[C@@H]1C(=O)N[C@H](C(=O)N1CCC[C@H]1C(=O)O)[C@@H](C)CC`, for which, on Cathepsin B [7], the IC50 is 2.28 nM.

Consider `CCCNC(=O)[C@H]1O[C@@H]1C(=O)N[C@@H](CC(C)C)C(=O)N1CCC[C@H]1C(=O)O`, for which the Ratio at Cathepsin B [4] amounted to 152000 M⁻¹ s⁻¹.

(Values after ChEMBL document CHEMBL4342401, “Cathepsin B: Active site mapping with peptidic substrates and inhibitors” (Bioorg Med Chem, 2019).)
